# Measured values: patent US7829300B2 (priority 2002, dated 2010)
# Columns and labels:
# P2Y2 receptor = test: Cytoplasmic Ca2+ measurement with ATP alone in CHOK1-μ-K32 cells (endogenous P2Y2); format: cell-based
# P2X7 = biological target: T1, P2X7 (Homo sapiens, UniProt Q99572); conditions: P2X7 versus P2Y2; cited from earlier work
# T1 sequence (Q99572 1-595): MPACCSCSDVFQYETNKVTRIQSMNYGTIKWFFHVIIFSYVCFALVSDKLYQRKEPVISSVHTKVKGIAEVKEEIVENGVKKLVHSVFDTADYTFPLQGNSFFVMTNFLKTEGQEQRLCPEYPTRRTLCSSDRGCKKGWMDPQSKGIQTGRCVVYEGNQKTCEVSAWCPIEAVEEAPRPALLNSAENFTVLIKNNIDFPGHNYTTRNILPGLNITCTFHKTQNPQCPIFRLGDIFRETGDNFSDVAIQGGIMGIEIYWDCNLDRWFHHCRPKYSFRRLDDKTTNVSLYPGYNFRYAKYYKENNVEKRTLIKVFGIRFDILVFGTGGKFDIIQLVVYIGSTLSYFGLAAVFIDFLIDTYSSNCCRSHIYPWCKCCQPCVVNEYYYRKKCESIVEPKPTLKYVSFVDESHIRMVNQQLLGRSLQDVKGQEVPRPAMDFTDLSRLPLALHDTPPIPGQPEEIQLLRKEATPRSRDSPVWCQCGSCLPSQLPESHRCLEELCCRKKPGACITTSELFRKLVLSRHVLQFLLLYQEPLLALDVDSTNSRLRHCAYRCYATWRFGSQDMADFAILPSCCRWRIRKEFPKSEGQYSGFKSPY
# μ opioid receptor = biological target: T2, μ opioid receptor (Homo sapiens, UniProt P35372); format: cell-based
# T2 construct: expressed in transfected cells; host or cells: CHO K1 (clone CHOK1-μ-K32)
# [1] = tested on: CHOK1-empty (mock) strain; format: cell-based
# 5HT-1B receptor = biological target: T3, 5HT-1B receptor (Cricetulus griseus, UniProt P46636); test: Cytoplasmic Ca2+ measurement (FLIPR, fluo-4) of the endogenously expressed 5HT-1B receptor in CHO K1 cells; format: cell-based; conditions: serotonin concentration 10 μM, 100 nM ATP, CHOK1-ORL-K66, mean of four measurements
# T3 construct: the 5HT-1B receptor endogenously expressed by the CHO cells; endogenous in cells; host or cells: CHO K1 (CHOK1-ORL-K66)
# Protocol: The cytoplasmic Ca^2+ concentration was measured in all the Examples using the FLIPR Calcium Plus Assay Kit and a corresponding FLIPR device from Molecular Devices, according to the manufacturer's instructions.
# In brief, on the day preceding the experiment, the cells to be measured were plated out in a suitable 96-well cell culture plate, in a density of 25,000 cells per well, in a volume of 100 μl of the appropriate medium. Cell culture plates from Becton-Dickinson (order no. 66440) coated with poly-D-lysine were used for the test. On the day of the test, the cells were loaded with fluo-4. To that end, a vial of fluo-4 was dissolved in 23 μl of DMSO and 23 μl of Pluronic F 127. 42 μl of the solution were added to 21 ml of HBSS (+Probenecid and Hepes). 50 μl of this solution per well were added to the cells, the plates being incubated, for loading, for 30 minutes at 37° C., 5% CO2, 98% relative humidity. In order to remove excess loading solution, the plates were washed three times with 200 μl of HBSS in a washing device for 96-well plates. This was followed by a dispension step, in which in each case 100 μl of HBSS were added to the cells. […]
# Compared with the negative control, the addition of the 5HT-1B agonist serotonin produced a marked signal intensification in the fluorescence measurement (FIG. 6).
# T2 sequence (P35372 whole entry, species assumed): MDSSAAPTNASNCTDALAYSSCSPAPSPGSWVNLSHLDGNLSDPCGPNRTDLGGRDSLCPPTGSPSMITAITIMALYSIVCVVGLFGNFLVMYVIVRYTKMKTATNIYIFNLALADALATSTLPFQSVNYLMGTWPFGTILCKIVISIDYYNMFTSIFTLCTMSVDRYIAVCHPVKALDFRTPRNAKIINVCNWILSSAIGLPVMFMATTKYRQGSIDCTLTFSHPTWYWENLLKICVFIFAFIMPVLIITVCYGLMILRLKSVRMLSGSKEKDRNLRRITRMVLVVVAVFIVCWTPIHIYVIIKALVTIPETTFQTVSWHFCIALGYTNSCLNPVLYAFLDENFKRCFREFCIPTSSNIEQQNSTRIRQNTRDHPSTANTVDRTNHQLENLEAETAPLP
# T3 sequence (P46636 whole entry): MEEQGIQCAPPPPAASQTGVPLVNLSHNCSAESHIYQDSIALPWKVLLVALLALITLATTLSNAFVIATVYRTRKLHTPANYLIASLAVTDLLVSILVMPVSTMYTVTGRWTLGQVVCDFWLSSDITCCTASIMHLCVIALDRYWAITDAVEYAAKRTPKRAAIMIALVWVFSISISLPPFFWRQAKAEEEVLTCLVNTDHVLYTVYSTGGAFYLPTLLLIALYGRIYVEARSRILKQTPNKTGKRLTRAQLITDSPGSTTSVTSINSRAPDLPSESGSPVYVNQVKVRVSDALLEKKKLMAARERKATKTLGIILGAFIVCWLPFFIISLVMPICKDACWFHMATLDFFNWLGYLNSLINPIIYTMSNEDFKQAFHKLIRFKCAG
smiles,measurement,setting,value
Nc1ncnc2c1ncn2[C@@H]1O[C@H](COP(=O)(O)OP(=O)(O)OP(=O)(O)O)[C@@H](O)[C@H]1O [ATP],fluorescence signal,"P2Y2 receptor; 300 nM ATP, absence of DAMGO, CHOK1-μ-K32",more than 1000 relative units
same,ATP concentration at which a change in the fluorescence is detectable,"P2Y2 receptor; ATP on its own, CHO-μ-K32 cells",≥ 300 nM
same,ATP binding to P2X7 relative to P2Y2 (times more weakly),P2X7,about 100 times
C[C@@H](NC(=O)[C@@H](N)Cc1ccc(O)cc1)C(=O)NCC(=O)N(C)[C@@H](Cc1ccccc1)C(=O)NCCO [DAMGO],fluorescence intensity in dependence on concentration,μ opioid receptor,conventional dose-response curve
same,fluorescence signal,μ opioid receptor,about 300 relative units
same,effect of DAMGO on the ATP-triggered fluorescence signal,[1],not affected
same,fluorescence signal in non-transfected CHOK1 cells,[1],none of the μ-receptor agonists used gave a fluorescence signal above the background
NCCc1c[nH]c2ccc(O)cc12 [serotonin],fluorescence intensity on average,5HT-1B receptor,1337 relative units
